In patent US11925629B2, “Heterocyclic inhibitors of ERK1 and ERK2 and their use in the treatment of cancer” (Asana Biosciences, LLC, priority 2015, dated 2024):

Assays:
[1] = system: HT-29 (colorectal carcinoma, B-RafV600E) cells; test: Cell proliferation (Alamar Blue) assay, HT-29; assay type: cell-based, human
Method: (§1) Cell Proliferation (Alamar Blue) Assay
(§2) HT-29 (colorectal carcinoma, B-RafV600E), HCT116 (colorectal carcinoma, K Ras G13D), A375 (melanoma, B-RafV600E) and SK-Mel2 (melanoma, NRAS Q61R) cells (obtained from ATCC, USA) were seeded (5000 cells/well) in 96-well tissue culture plate and incubated at 37° C./5% CO2 for 16-24 hours. The cells were then treated with compounds, at concentrations typically from 0.0005 to 10 uM prepared in 3-fold serial dilutions. The plates were then incubated for 72 h at 37° C./5% CO2 in a moist environment. Then Alamar Blue™ reagent (final concentration 1×) was added to each well and incubated for 1-3 h at 37° C./5% CO2. The plates were read on fluorescence reader at 540 nm excitation and 590 nm emission wavelengths. The IC50 values were subsequently determined using a sigmoidal dose-response curve (variable slope) using GraphPad Prism® 5 software.

[2] = system: HCT116 (colorectal carcinoma, K Ras G13D) cells; test: Cell proliferation (Alamar Blue) assay, HCT116; assay type: cell-based, human
Method: as §1, §2

[3] = Homo sapiens, HCT-116, HCT116 cells
[4] = Homo sapiens, HT-29, HT29 cells

SMILES: Cc1cnc(Nc2ccc(F)cc2)cc1-n1cnc(C(=O)NC(CN)c2ccccc2)c1 (single isomer, unassigned; enantiomer #1) [Example 227, N-(2-amino-1-phenylethyl)-1-(2-((4-fluorophenyl)amino)-5-methylpyridin-4-yl)-1H-imidazole-4-carboxamide, Enantiomer #1]
- IC50 ([1]; HT29 cells): 100 to 250 nM

SMILES: Cc1cnc(NC2CCOCC2)nc1-n1cnc(C(=O)NC(CN)c2ccc(Cl)s2)c1 (single isomer, unassigned; enantiomer #1) [Example 290, N-(2-amino-1-(5-chlorothiophen-2-yl)ethyl)-1-(5-methyl-2-((tetrahydro-2H-pyran-4-yl)amino)pyrimidin-4-yl)-1H-imidazole-4-carboxamide (enantiomer #1)]
- IC50 ([2]; HCT116 cells): ≤ 100 nM

SMILES: Cc1cnc(Nc2ccccc2Cl)nc1-n1cc(NC(=O)N[C@H](CO)c2cccc(Cl)c2)cn1 [Cmpd 2, (S)-1-(1-(3-chlorophenyl)-2-hydroxyethyl)-3-(1-(2-((2-chloro-phenyl)amino)-5-methylpyrimidin-4-yl)-1H-pyrazol-4-yl)urea]
- IC50 [2, 3]: > 2500 nM
- IC50 [1, 4]: > 2500 nM

SMILES: O=C(Nc1cnn(-c2ccnc(Nc3ccc(F)cc3Cl)n2)c1)N[C@H](CO)c1cccc(Cl)c1 [Cmpd 20, (S)-1-(1-(2-((2-chloro-4-fluoro-phenyl)amino)pyrimidin-4-yl)-1H-pyrazol-4-yl)-3-(1-(3-chloro-phenyl)-2-hydroxyethyl) urea]
- IC50 [2, 3]: > 2500 nM

SMILES: Cc1cnc(NC2CC2)nc1-n1cc(C(=O)N[C@H](CO)c2cccc(Cl)c2)cn1 [Cmpd 39, (S)-N-(1-(3-chlorophenyl)-2-hydroxy-ethyl)-1-(2-(cyclopropyl-amino)-5-methyl-pyrimidin-4-yl)-1H-pyrazole-4-carboxamide]
- IC50 [2, 3]: > 2500 nM
- IC50 [1, 4]: > 2500 nM

SMILES: Cc1cnc(Nc2ccc3c(c2)OCO3)nc1-n1cc(NC(=O)N[C@H](CO)c2ccccc2)cn1 [Cmpd 55, (S)-1-(1-(2-(benzo[d][1,3]dioxol-5-ylamino)-5-methyl-pyrimidin-4-yl)-1H-pyrazol-4-yl)-3-(2-hydroxy-1-phenylethyl) urea]
- IC50 [2, 3]: > 2500 nM
- IC50 [1, 4]: > 2500 nM

SMILES: O=C(Nc1cnn(-c2ccnc(Nc3ccccc3Cl)n2)c1)N[C@H](CO)c1cccc(Cl)c1 [Example 1, (S)-1-(1-(3-chlorophenyl)-2-hydroxyethyl)-3-(1-(2-((2-chloro-phenyl)amino)pyrimidin-4-yl)-1H-pyrazol-4-yl) urea]
- IC50 [2, 3]: > 2500 nM

SMILES: Cc1cnc(NC2CC2)nc1-n1cc(NC(=O)N[C@H](CO)c2cccc(Cl)c2)cn1 [Example 3, (S)-1-(1-(3-chlorophenyl)-2-hydroxyethyl)-3-(1-(2-(cyclo-propyl-amino)-5-methyl-pyrimidin-4-yl)-1H-pyrazol-4-yl)urea]
- IC50 [2, 3]: > 2500 nM
- IC50 [1, 4]: > 2500 nM

SMILES: O=C(Nc1cnn(-c2ccnc(Nc3ccccc3Cl)n2)c1)N[C@@H](CO)c1ccccc1 [Example 4, (R)-1-(1-(2-((2-chlorophenyl)amino)pyrimidin-4-yl)-1H-pyrazol-4-yl)-3-(2-hydroxy-1-phenylethyl) urea]
- IC50 [2, 3]: > 2500 nM
- IC50 [1, 4]: > 2500 nM

SMILES: O=C(Nc1cnn(-c2ccnc(NC3CC3)n2)c1)N[C@H](CO)c1cccc(Cl)c1 [Example 6, (S)-1-(1-(3-chlorophenyl)-2-hydroxyethyl)-3-(1-(2-(cyclo-propyl-amino)pyrimidin-4-yl)-1H-pyrazol-4-yl)urea]
- IC50 [2, 3]: > 2500 nM
- IC50 [1, 4]: > 2500 nM

SMILES: O=C(Nc1cnn(-c2ccnc(Nc3ccccc3Cl)n2)c1)N[C@H](CO)c1ccccc1 [Example 7, (S)-1-(1-(2-((2-chlorophenyl)amino)pyrimidin-4-yl)-1H-pyrazol-4-yl)-3-(2-hydroxy-1-phenylethyl) urea]
- IC50 [2, 3]: > 2500 nM
- IC50 [1, 4]: > 2500 nM

SMILES: O=C(Nc1cnn(-c2ccnc(N[C@H]3CC[C@H](O)CC3)n2)c1)N[C@H](CO)c1cccc(Cl)c1 [Example 14, 1-((S)-1-(3-chlorophenyl)-2-hydroxy-ethyl)-3-(1-(2-((trans-4-hydroxycyclo-hexyl)amino)pyrimidin-4-yl)-1H-pyrazol-4-yl)urea]
- IC50 [2, 3]: > 2500 nM

SMILES: COc1cc(N2CCN(C(C)=O)CC2)ccc1Nc1nccc(-n2cc(NC(=O)N[C@H](CO)c3cccc(Cl)c3)cn2)n1 [Example 15, (S)-1-(1-(2-((4-(4-acetyl-piperazin-1-yl)-2-methoxy-phenyl)amino)pyrimidin-4-yl)-1H-pyrazol-4-yl)-3-(1-(3-chloro-phenyl)-2-hydroxyethyl) urea]
- IC50 [2, 3]: > 2500 nM

SMILES: O=C(Nc1cnn(-c2ccnc(NC3CC3)n2)c1)NC(CO)c1cccc(Cl)c1 (centres unmarked) [Example 16, 1-(1-(3-chlorophenyl)-2-hydroxy-ethyl)-3-(1-(2-(cyclo-propylamino)pyrimidin-4-yl)-1H-pyrazol-4-yl)urea]
- IC50 [2, 3]: > 2500 nM

SMILES: CN1CCN(c2ccc(Nc3nccc(-n4cc(NC(=O)N[C@H](CO)c5cccc(Cl)c5)cn4)n3)cc2)CC1 [Example 22, (S)-1-(1-(3-chlorophenyl)-2-hydroxy-ethyl)-3-(1-(2-((4-(4-methyl-piperazin-1-yl)-phenyl)amino)pyrimidin-4-yl)-1H-pyrazol-4-yl)urea]
- IC50 [2, 3]: > 2500 nM
- IC50 [1, 4]: > 2500 nM

SMILES: O=C(Nc1cnn(-c2ccnc(Nc3cccnc3)n2)c1)N[C@H](CO)c1cccc(Cl)c1 [Example 24, (S)-1-(1-(3-chlorophenyl)-2-hydroxy-ethyl)-3-(1-(2-(pyridin-3-yl-amino)pyrimidin-4-yl)-1H-pyrazol-4-yl)urea]
- IC50 [2, 3]: > 2500 nM
- IC50 [1, 4]: > 2500 nM

SMILES: O=C(Nc1cnn(-c2nc(NC3CC3)ncc2F)c1)N[C@H](CO)c1cccc(Cl)c1 [Example 30, (S)-1-(1-(3-chlorophenyl)-2-hydroxy-ethyl)-3-(1-(2-(cyclo-propyl-amino)-5-fluoro-pyrimidin-4-yl)-1H-pyrazol-4-yl)urea]
- IC50 [2, 3]: > 2500 nM
- IC50 [1, 4]: > 2500 nM

SMILES: O=C(Nc1cnn(-c2ccnc(Nc3ccccc3)c2)c1)NC(CO)c1cccc(Cl)c1 (centres unmarked) [Example 33, 1-(1-(3-chlorophenyl)-2-hydroxy-ethyl)-3-(1-(2-(phenyl-amino)-pyridin-4-yl)-1H-pyrazol-4-yl)urea]
- IC50 [2, 3]: > 2500 nM

SMILES: Cc1cnc(Nc2ccc(F)cc2Cl)nc1-n1cc(C(=O)N[C@H](CO)c2cccc(Cl)c2)cn1 [Example 35, (S)-1-(2-((2-chloro-4-fluoro-phenyl)amino)-5-methyl-pyrimidin-4-yl)-N-(1-(3-chloro-phenyl)-2-hydroxy-ethyl)-1H-pyrazole-4-carboxamide]
- IC50 [2, 3]: > 2500 nM

SMILES: Cc1cnc(Nc2ccc(F)cc2Cl)nc1-n1cc(NC(=O)NC(CO)c2cccc(Cl)c2)cn1 (centres unmarked) [Example 36, 1-(1-(2-((2-chloro-4-fluorophenyl)-amino)-5-methyl-pyrimidin-4-yl)-1H-pyrazol-4-yl)-3-(1-(3-chlorophenyl)-2-hydroxy-ethyl)urea]
- IC50 [2, 3]: > 2500 nM

SMILES: O=C(N[C@H](CO)c1cccc(Cl)c1)c1ccn(-c2ccnc(Nc3ccc(F)cc3Cl)n2)c1 [Example 112, (S)-1-(2-((2-chloro-4-fluorophenyl)-amino)pyrimidin-4-yl)-N-(1-(3-chlorophenyl)-2-hydroxy-ethyl)-1H-pyrrole-3-carboxamide]
- IC50 [2, 3]: > 2500 nM

SMILES: Cc1cnc(NC2CCOCC2)nc1-n1cnc(C(=O)NC(CN)c2ccc(Cl)s2)c1 (centres unmarked) [Example 274, N-(2-amino-1-(5-chlorothiophen-2-yl)ethyl)-1-(5-methyl-2-((tetrahydro-2H-pyran-4-yl)amino)pyrimidin-4-yl)-1H-imidazole-4-carboxamide]
- IC50 ([2]; HCT116 cells): ≤ 100 nM
